# Experiment: Sonication of magnesium oxide nanopowder with different ligands (functionalization, dispersion)
# Format: physicochemical
# Procedure: Different capping ligands were selected for the functionalization of magnesium oxide nanoparticles (see FIG. 5). This method is applicable to ligands whose anchoring groups forms stable magnesium complexes such as catecholates, salicylates, phosphates and phosphonates. Even if the affinity of each individual group for the particle surface is low, the multiplicity of anchoring groups provides a strong adsorption. For example, poly-aspartic and poly-glutamic acids were tested for the functionalization of magnesium oxide nanoparticles. In this procedure, the capping ligands were sonicated with the nanoparticles until a complete dispersion was obtained. The stability of the dispersion was evaluated by the absorption spectra of the obtained mixture.
# As a starting point for the optimization of the procedure, the magnesium oxide nanoparticles (200 mg) were dispersed in 25 mL of 1% capping agent with continuous stirring at different times. The concentration of nanoparticles and capping agent in the dispersion mixture together with the incubation temperature was optimized to increase the stability of the dispersed nanoparticles. The excess of capping agent was removed by centrifugation and washing with water. […]
structure (smiles),measurement,setting,value
NCCCC(O)(P(=O)(O)O)P(=O)(O)O [alendronate],dispersion of magnesium oxide nanomaterial with ligand,"preliminary results, FIG. 7",good results
NCCP(=O)(O)O [2-aminoethylphosphonic acid],effect of ligand on magnesium oxide nanomaterial on sonication,magnesium oxide nanopowder sonicated in the presence of the ligand,dissolved the nanomaterial

# From patent US20240024240A1 (priority 2020, published 2024)
